Reference: article PMC8962522, “Direct interaction of TrkA/CD44v3 is essential for NGF-promoted aggressiveness of breast cancer cells” (Journal of Experimental & Clinical Cancer Research : CR, 2022)

Key:
[1] = tested on: CD44v3 (CD44v3-His, whole cell extracts of COS-7 cells expressing CD44v3); test: MST binding of NGF, TrkA or FGF to CD44v3; settings: whole cell extracts of COS-7 expressing CD44v3, NGF alone, TrkA alone or FGF control
Protocol: (§1) MST was conducted using an NT.115 A Pico MST instrument (Nano Temper Technologies GmbH) equipped with red and blue filter sets. The TrkA-His tagged extracellular domain protein (Ala 34-Gly423) (9966-TK-050; R&D Systems, United Kingdom), diluted to 200 nM in PBS-T buffer (supplied by the vendor), was labeled using a Monolith His-Tag Labeling Kit with RED-Tris-NTA (Nano Temper). The RED-Tris-NTA dye was diluted in PBS-T to 100 nM. The mix was incubated at RT in the dark for 30 min. Next, an extract expressing CD44v3-labeled protein (CD44v3-His) and ligand and/or TrkA was mixed at a 1:1 ratio and incubated at RT in the dark for 15 min. For the binding check, peptides and TrkA-His were used. Capillaries were filled individually and loaded into the instrument. The data were acquired using high MST power and 100% LED. The data were analyzed using MO Control Software (Nano Temper).
(§2) Fig. 1 The C-terminal region of CD44 variant 3 binds to TrkA. A Schematic representation of the CD44 gene and protein structure. Alternative splicing leads to the expression of CD44 variants, thus the insertion of exon 8 leads to the expression of a CD44 protein containing variant 3 (CD44v3) and the insertion of exon 11 leads to the expression of a CD44 containing variant 6 (CD44v6) (B) TrkA/CD44v3 complex formation in COS-7 cells expressing TrkA and CD44v3 was detected by the proximity ligation assay (PLA), which was performed 0, 5 and 30 min after the initiation of NGF (100 ng/ml) treatment. The images represent signals detected by PLA. Quantification of the red spots was performed by ImageJ software (30 randomly chosen fields per condition of three different experiments). Statistical analyses were performed using one-way ANOVA followed by Bonferroni’s posttest. Error bars represent the standard error of the mean (S.E.M.); *** p < 0.001. ns, nonsignificant. C NGF and/or TrkA binding to CD44v3 was measured by microscale thermophoresis (MST). MST experiments were performed on whole cell extracts of COS-7 cells expressing CD44v3. […]

[2] = tested on: TrkA/CD44v3 complex in MDA-MB-231 cells; test: PLA TrkA/CD44v3 complex formation in MDA-MB-231 cells; assay type: cell-based; settings: NGF 100 ng/ml; 30 fields per condition, three experiments
Protocol: (§3) Cells (10,000 cells per well) were grown on acid-washed eight-well glass slides (Thermo Scientific) in the appropriate medium supplemented with 10% FBS for 24 h. After NGF treatment, paraformaldehyde (PAF)-fixed cells were incubated with 4% bovine serum albumin (BSA) or 5% FBS (for 1 h at 20 °C), followed by overnight incubation with primary antibodies (rabbit anti-TrkA or rabbit anti-IgG + mouse anti-pan-CD44; mouse anti-CD44v3; mouse anti-CD44v6; mouse anti-IgG2a; mouse anti-IgG2b; or mouse anti-IgG1). PLA was performed following the manufacturer’s instructions in the assay kit (Duolink PLA; Sigma–Aldrich). To obtain the correct representation of the PLA signal for each condition, 30 fields per condition were observed using a fluorescence microscope (Eclipse TiU; Nikon, Japan). The PLA signals (red dots) were automatically quantified using ImageJ software (with an in-house-developed plug-in). After PLA, statistical analyses were performed using GraphPad Prism software to determine the mean dot intensity in the cells.
Fig. 3 CD44v3 mimetic peptide 4 blocks the TrkA-CD44 association in MDA-MB-231 breast cancer cells. TrkA/CD44v3 (A) and TrkA/CD44v6 (B) complex associations were detected by the proximity ligation assay (PLA) in MDA-MB-231 breast cancer cells. Effects of a scramble peptide (SP) (C), CD44v3 mimetic peptide 3 (P3) and 4 (P4) (D) on TrkA/CD44v3 complex formation induced by NGF. Quantification of the PLA results was performed by ImageJ software (30 randomly chosen fields per condition of three different experiments). Statistical analyses were performed using one-way ANOVA followed by Bonferroni’s posttest. The error bars represent the standard error of the mean (S.E.M.); * p < 0.05, ** p < 0.01, *** p < 0.001; ns, not significant

[3] = tested on: TrkA/CD44v3 complex in COS-7 cells expressing TrkA and CD44v3; test: PLA TrkA/CD44v3 complex formation in COS-7 cells; assay type: cell-based, African green monkey (COS-7 cells); settings: COS-7 expressing TrkA and CD44v3, NGF 100 ng/ml, 0, 5 and 30 min, 30 fields per condition, three experiments
Protocol: as §3, §2
Fig. 2 The C-terminal region of CD44v3 and the His112 residue of TrkA are involved in the CD44v3/TrkA interaction. TrkA/CD44v3 complex association was detected by the proximity ligation assay (PLA) in wild-type TrkA- or TrkA_H112A- and CD44v3-expressing COS-7 cells. […] Representative images of signals detected by PLA (A) and their quantification (B). […] TrkA/CD44v3 complex association was detected by PLA in wild-type TrkA and CD44v3 wild type or CD44v3 deleted mutant Δ3 or Δ4 expressing COS-7 (D, E). […] Quantification of PLA was performed using ImageJ software (30 fields per condition of three different experiments). […]

[4] = tested on: TrkA-His tagged extracellular domain protein (Ala 34-Gly423); test: MST binding of CD44v3 mimetic peptides to TrkA; settings: TrkA-His 200 nM labelled with RED-Tris-NTA, PBS-T
Protocol: as §1
Fig. 2 The C-terminal region of CD44v3 and the His112 residue of TrkA are involved in the CD44v3/TrkA interaction. TrkA/CD44v3 complex association was detected by the proximity ligation assay (PLA) in wild-type TrkA- or TrkA_H112A- and CD44v3-expressing COS-7 cells. Proximity ligation assays were performed after 0, 5 and 30 min of NGF treatment (100 ng/ml). Representative images of signals detected by PLA (A) and their quantification (B). Sequence of CD44 exon variant 3 and deletion mutant Δ3 or Δ4 (C). TrkA/CD44v3 complex association was detected by PLA in wild-type TrkA and CD44v3 wild type or CD44v3 deleted mutant Δ3 or Δ4 expressing COS-7 (D, E). Sequence of CD44v3 mimetic peptides (F) and structure (G). TrkA binding to CD44v3 mimetic peptides by microscale thermophoresis (H) and effects of CD44v3 mimetic peptides 3 (RDRHLSFSGSG) and 4 ([…]) on TrkA/CD44v3 complex formation (I, J). Quantification of PLA was performed using ImageJ software (30 fields per condition of three different experiments). Statistical analyses were performed using one-way ANOVA followed by Bonferroni’s posttest.
To block the TrkA-CD44v3 association, 4 mimetic peptides of CD44v3 were designed corresponding to zone 1 [(K) STSSNTISAG], zone 2 (WEPNEENEDE), zone 3 (RDRHLSFSGSG) and zone 4 (IDDDEDFISST) (Fig. 2F & G). The binding capacities of the CD44v3 mimetic peptides to TrkA were then measured by MST (Fig. 2H). […] To confirm mimetic peptide 4 binding, we assessed its ability to bind TrkA using nanoscale differential scanning fluorimetry (nanoDSF; Supplementary Fig. 6A & B).

Substance | binding to CD44v3 (in words) [1] | binding to TrkA by MST (in words) [4] | also measured
FGF-1: fibroblast growth factor, positive control for CD44v3 binding | In contrast to FGF-1 (Supplementary Fig. 4), NGF did not bind to CD44v3 |  | 
RDRHLSFSGSG [Peptide 3, CD44v3 mimetic peptide corresponding to zone 3 (…)] |  |  | effect on TrkA/CD44v3 complex formation (PLA) in MDA-MB-231 cells [2]: neither a scramble peptide (Fig. 3C) nor mimetic peptide P3 (Fig. 3D) inhibited TrkA/CD44v3 complex formation following NGF treatment; effect on TrkA/CD44v3 complex formation (PLA) in COS-7 cells [3]: did not inhibit TrkA/CD44v3 complex formation; effect on TrkA/CD44v3 complex formation (PLA) in COS-7 cells ([3]; listed as P3): did not abolish complex formation; binding to TrkA by MST (in words) ([4]; listed as P3): also bound TrkA
FGF-2: FGF-2 (control), binding to CD44v3 | binding to CD44v3 but not to NGF was detected |  | 
KSTSSNTISAG [Peptide 1, CD44v3 mimetic peptide corresponding to zone 1 [(K) […]]] |  | neither peptide 1 ([…]) nor peptide 2 ([…]) could bind TrkA | 
WEPNEENEDE [Peptide 2, CD44v3 mimetic peptide corresponding to zone 2 (…)] |  | neither peptide 1 (KSTSSNTISAG) nor peptide 2 (WEPNEENEDE) could bind TrkA | 
